The source of these data is patent US8828907B2, “Active ingredient combinations having insecticidal and acaricidal properties” (Bayer CropScience AG, priority 2009, dated 2014).

SMILES strings stand for the structures.

What all share (type): in vivo
Settings in all cases: single active compound

The test system of experiment [1] is larvae of the mustard beetle (Phaedon cochleariae). Put plainly: Phaedon cochleariae larvae test (sprayed cabbage leaves). On the procedure: (§1) Solvents: 78 parts by weight of acetone • • 1.5 parts by weight of dimethylformamide
(§2) Emulsifier: 0.5 part by weight of alkylaryl polyglycol ether
(§3) To produce a suitable preparation of active compound, 1 part by weight of active compound is mixed with the stated amount of solvent and emulsifier, and the concentrate is diluted with emulsifier-containing water to the desired concentration.
Cabbage leaves (Brassica oleracea) are treated by spraying with the active ingredient formulation of the desired concentration and populated with larvae of the mustard beetle (Phaedon cochleariae) while the leaves are still moist.
After the desired period of time, the kill in % is determined. 100% means that all beetle larvae have been killed; 0% means that none of the beetle larvae have been killed. The kill rates determined are entered into Colby's formula (see above).

The test system of experiment [2] is larvae of the armyworm (Spodoptera frugiperda). Put plainly: Spodoptera frugiperda larvae test (sprayed cabbage leaves). On the procedure:
as §1, §2, §3
Cabbage leaves (Brassica oleracea) are treated by being sprayed with the preparation of active compound of the desired concentration and are populated with larvae of the armyworm (Spodoptera frugiperda) while the leaves are still moist.
After the desired period of time, the kill in % is determined. 100% means that all caterpillars have been killed; 0% means that none of the caterpillars have been killed. The kill rates determined are entered into Colby's formula (see above).

For experiment [3], the system named is greenhouse red spider mite (Tetranychus urticae). As to the kind of experiment: Tetranychus urticae test (OP-resistant/spray treatment). On the procedure: as §1, §2, §3
Discs of bean leaves (Phaseolus vulgaris) which are infested by all stages of the greenhouse red spider mite (Tetranychus urticae) are sprayed with an active compound preparation of the desired concentration.
After the desired period of time, the effect in % is determined. 100% means that all of the spider mites have been killed; 0% means that none of the spider mites have been killed.

Experiment [4] concerns green peach aphid (Myzus persicae). As to the kind of experiment: Myzus persicae test (spray on infested cabbage leaves). On the procedure:
as §1, §2, §3
Cabbage leaves (Brassica oleracea) which are heavily infested by the green peach aphid (Myzus persicae) are treated by spraying with the active compound preparation of the desired concentration.
After the desired period of time, the kill in % is determined. 100% means that all of the aphids have been killed; 0% means that none of the aphids have been killed. The kill rates determined are entered into Colby's formula (see above).

On to `O=C(NC(=O)c1c(F)cccc1F)Nc1ccc(Oc2ccc(C(F)(F)F)cc2Cl)cc1F` [flufenoxuron, reference compound], for which the “Kill in % after 2d” value stood at 0% in experiment [1] (100 g/ha) and 33% in experiment [2] (0.8 g/ha). In addition, in experiment [3] (20 g/ha), the “Kill in % after 6d” value is reported as 0%. Besides, the “Kill in % after 1d” value in experiment [4] (0.8 g/ha) and in experiment [4] (4 g/ha) was 0% throughout.

In the case of `O=C1C=C(N(Cc2ccc(Cl)nc2)CC(F)F)CO1` [compound (I-5), 4-{[(6-chloropyrid-3-yl)methyl](2,2-difluoroethyl)amino}furan-2(5H)-one], the “Kill in % after 2d” value in experiment [1] (4 g/ha), in experiment [1] (100 g/ha), in experiment [2] (0.8 g/ha) and in experiment [2] (4 g/ha) was 0% each time. For the same molecule, the “Kill in % after 6d” value in experiment [3] (20 g/ha) and in experiment [3] (100 g/ha) was 0% throughout.

In the case of `O=C(NC(=O)c1ccccc1Cl)Nc1ccc(OC(F)(F)F)cc1` [triflumuron, reference compound], the “Kill in % after 2d” value in experiment [1] (4 g/ha) is given as 0%; in experiment [2] (0.16 g/ha) it was 50%; in experiment [2] (0.8 g/ha), 33%. In addition, the “Kill in % after 1d” value in experiment [4] (0.8 g/ha) and in experiment [4] (4 g/ha) was 0% each time.

On to `O=C1C=C(N(CCF)Cc2ccc(Cl)nc2)CO1` [compound (I-4), 4-{[(6-chloropyrid-3-yl)methyl](2-fluoroethyl)amino}furan-2(5H)-one], for which the “Kill in % after 2d” value in experiment [1] (4 g/ha), in experiment [1] (100 g/ha), in experiment [2] (0.16 g/ha), in experiment [2] (0.8 g/ha) and in experiment [2] (20 g/ha) was 0% in each case. Further, the “Kill in % after 6d” value in experiment [3] (20 g/ha) was 0%. In addition, in experiment [4] (4 g/ha), the “Kill in % after 1d” value came to 30%.

In the case of `O=C(NC(=O)c1c(F)cccc1F)Nc1cc(Cl)c(OC(F)(F)C(F)C(F)(F)F)cc1Cl` (stereo not drawn) [lufenuron, reference compound], in experiment [1] (100 g/ha), the “Kill in % after 2d” value was 17%. Also, the “Kill in % after 1d” value in experiment [4] (4 g/ha) is 0%.

Consider `COc1cccc(C(=O)NN(C(=O)c2cc(C)cc(C)c2)C(C)(C)C)c1C` [methoxyfenozide, reference compound], for which the “Kill in % after 2d” value in experiment [2] (4 g/ha) came out at 33%; in experiment [2] (20 g/ha), 83%. For the same molecule, the “Kill in % after 6d” value in experiment [3] (100 g/ha) is 0%. Moreover, in experiment [4] (4 g/ha), the “Kill in % after 1d” value was 0%.

As to `CN(Cc1cnc(Cl)c(F)c1)C1=CC(=O)OC1` [compound (I-6), 4-{[(6-chloro-5-fluorpyrid-3-yl)methyl](methyl)amino}furan-2(5H)-one], the “Kill in % after 2d” value in experiment [1] (100 g/ha), in experiment [2] (0.8 g/ha) and in experiment [2] (20 g/ha) was 0% throughout. Further, the “Kill in % after 1d” value in experiment [4] (0.8 g/ha) worked out at 70%.
